Laboratory results reported in publication PMC3994546 (Chemico-biological interactions, 2014).
Where two headings read alike, the source gives them in different places.

Experiments:
hSULT2A1 [1] = molecular target: T1, hSULT2A1 (Homo sapiens, UniProt Q06520); assay: Ligand binding to free hSULT2A1 by ANS fluorescence displacement; details: for difference in the multiphasic binding pattern in the presence or absence of either DHEA or PAP: with or without DHEA or PAP
T1 sequence (Q06520 1-285): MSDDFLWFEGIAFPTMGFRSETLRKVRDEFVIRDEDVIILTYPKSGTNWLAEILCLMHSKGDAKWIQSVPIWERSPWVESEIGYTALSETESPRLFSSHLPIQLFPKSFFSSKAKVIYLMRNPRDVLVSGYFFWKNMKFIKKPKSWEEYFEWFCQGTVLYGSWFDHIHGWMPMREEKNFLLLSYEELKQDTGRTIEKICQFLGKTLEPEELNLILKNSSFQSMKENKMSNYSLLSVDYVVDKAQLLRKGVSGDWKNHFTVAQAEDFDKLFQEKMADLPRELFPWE

hSULT2A1 [2] = molecular target: T1, hSULT2A1; details: cited from earlier work
hSULT2A1 E-PAP complex = molecular target: T2, hSULT2A1 E-PAP complex (Homo sapiens, UniProt Q06520); assay: Ligand binding to the hSULT2A1-PAP complex by ANS fluorescence displacement
T2 sequence (Q06520 1-285): T1 sequence (Q06520 1-285)

hSULT2A1 [3] = molecular target: T1, hSULT2A1; assay: Kinetics of inhibition of hSULT2A1-catalyzed sulfation of [3H]DHEA by OHPCBs; format: biochemical; details: for type of inhibition with respect to DHEA (best-fit kinetic model): fixed PAPS, varied DHEA and inhibitor, model chosen by R2 and AICc; for β value of partial noncompetitive inhibition equation: signifies formation of DHEA-sulfate in the presence of the inhibitor

| SMILES | Kd (hSULT2A1 [1]) | binding pattern to hSULT2A1 (ANS displacement) (hSULT2A1 [1]; free enzyme) | substrate for hSULT2A1-catalyzed sulfation (hSULT2A1 [2]) | Ki (hSULT2A1 [3]) | type of inhibition with respect to DHEA (best-fit kinetic model) (hSULT2A1 [3]) | other results |
| --- | --- | --- | --- | --- | --- | --- |
| Oc1c(Cl)cc(-c2ccccc2Cl)cc1Cl [4-OHPCB 34, 4-hydroxy-2’, 3,5-trichlorobiphenyl] | 2.07 ± 0.3 µM | classical single-site binding characteristics | served as alternate substrates | 0.8 ± 0.1 µM | – | Kd (hSULT2A1 E-PAP complex): 3.2 ± 0.31 µM |
| Oc1ccc(-c2ccc(Cl)c(Cl)c2)c(Cl)c1 [4’-OHPCB 33, 4’-hydroxy-2’, 3,4-trichlorobiphenyl] | – | multiphasic binding | served as alternate substrates | 3 ± 0.2 µM | – | difference in the multiphasic binding pattern in the presence or absence of either DHEA or PAP (hSULT2A1 [1]): did not show significant differences |
| Oc1ccc(-c2ccccc2Cl)cc1Cl [4’-OHPCB 6, 4’-hydroxy-2, 3’-dichlorobiphenyl] | – | – | – | 5.4 ± 0.2 µM | noncompetitive | – |
| Oc1ccc(-c2ccc(Cl)c(Cl)c2)cc1 [4’-OHPCB 12, 4’-hydroxy-3,4-dichlorobiphenyl] | – | – | – | 4 ± 0.3 µM | – | – |
| Oc1ccc(-c2ccc(Cl)cc2Cl)cc1Cl [4’-OHPCB 25, 4’-hydroxy-2, 3’, 4-trichlorobiphenyl] | – | – | served as alternate substrates | 3 ± 0.6 µM | partial noncompetitive inhibition | β value of partial noncompetitive inhibition equation (hSULT2A1 [3]): 0.19 ± 0.06 |
| Oc1ccc(-c2cccc(Cl)c2)cc1Cl [4-OHPCB 11, 4-hydroxy-3, 3’-dichlorobiphenyl] | – | – | served as alternate substrates | 12 ± 0.9 µM | – | – |
| Oc1ccc(Cl)cc1-c1ccc(Cl)c(Cl)c1 [6’-OHPCB 35, 6’-hydroxy-3, 3’-4 trichlorobiphenyl] | – | multiphasic behavior | – | – | – | Ki (hSULT2A1 [3]; read-out: Ki, inhibition of the sulfation of DHEA catalyzed by hSULT2A1, nonlinear regression fit to noncompetitive inhibition equation (4-OHPCB 36: competitive inhibition equation), 200 µM PAPS, pH 7.0, 37°C): 9 ± 0.5 µM |
| Oc1ccc(-c2ccc(Cl)cc2)cc1 [4’-OHPCB 3, 4’-hydroxy-4-monochlorobiphenyl] | 3.48 ± 1.03 µM | – | – | 17 ± 1.5 µM | – | – |
| Oc1c(Cl)cc(-c2ccc(Cl)cc2Cl)cc1Cl [4’-OHPCB 68, 4’-hydroxy-2, 3’, 4, 5’-tetrachlorobiphenyl] | 2.26 ± 0.33 µM | – | served as alternate substrates | 0.6 ± 0.1 µM | partial noncompetitive inhibition | β value of partial noncompetitive inhibition equation (hSULT2A1 [3]): 0.23 ± 0.07 |
| Oc1ccc(-c2ccc(Cl)cc2)c(Cl)c1 [4-OHPCB 8, 4-hydroxy-2, 4’-dichlorobiphenyl] | – | – | served as alternate substrates | 5 ± 0.4 µM | – | – |
| Oc1c(Cl)cc(-c2cccc(Cl)c2)cc1Cl [4-OHPCB 36, 4-hydroxy-3, 3’, 5-trichlorobiphenyl] | 2.46 ± 0.43 µM | – | served as alternate substrates | 3.4 ± 0.8 µM | partial competitive inhibition | α value of partial competitive inhibition equation (hSULT2A1 [3]): 4.2 |
| Oc1ccc(-c2cc(Cl)ccc2Cl)cc1 [4’-OHPCB 9, 4’-hydroxy-2,5-dichlorobiphenyl] | – | multiphasic binding | – | 0.7 ± 0.1 µM | partial noncompetitive inhibition | difference in the multiphasic binding pattern in the presence or absence of either DHEA or PAP (hSULT2A1 [1]): did not show significant differences; β value of partial noncompetitive inhibition equation (hSULT2A1 [3]): 0.11 ± 0.02 |
| Oc1c(Cl)cc(-c2ccccc2)cc1Cl [4-OHPCB 14, 4-hydroxy-3,5-dichlorobiphenyl] | 2.55 ± 0.63 µM | classical single-site binding characteristics | served as alternate substrates | 13.5 ± 1 µM | – | Kd (hSULT2A1 E-PAP complex): 2.21 ± 0.5 µM |
| Oc1ccc(-c2ccc(Cl)cc2)cc1O [3’,4’-diOHPCB 3, 3’, 4’-dihydroxy-4-monochlorobiphenyl] | 1.17 ± 1.11 µM | – | – | 32 ± 2.3 µM | – | Kd (hSULT2A1 [1]; read-out: Kd2, binding to hSULT2A1 in the absence of substrates or products, free enzyme, two-site, nonspecific binding curve): 41.9 ± 74.8 µM |
| Oc1ccc(-c2cccc(Cl)c2Cl)cc1O [3’,4’-diOHPCB 5, 3’, 4’- dihydroxy-2,3-dichlorobiphenyl] | – | – | – | 14 ± 0.8 µM | – | – |
